This passage reports DC50 results from patent US20250051338A1, “TYK2 DEGRADERS AND USES THEREOF” (Kymera Therapeutics, Inc., priority 2021, published 2025).

A value given as a limit tells only on which side of the number the result lay.

What all share (assay type): cell-based
The target of assay [1] is T1, TYK2 (Homo sapiens, UniProt P29597). As to the kind of experiment: TYK2 degradation MSD assay in EBV-B cells. The note with it: 4 to 24 hours incubation, read-out: TYK2 MSD DC50 rating in EBV-B. On the set-up: endogenous in cells; host or cells: EBV-B cells. The essentials: (§1)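 TYK2 levels in lysed cells, detected via antibody capture and SULFO-TAG electrochemiluminescence, were compared across a nine-point threefold compound dilution (highest 1 to 10 μM) after 4–24 h culture at 37° C under 5% CO2. Four-parameter nonlinear regression of the dose response yielded DC50.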
T1 sequence (P29597 whole entry): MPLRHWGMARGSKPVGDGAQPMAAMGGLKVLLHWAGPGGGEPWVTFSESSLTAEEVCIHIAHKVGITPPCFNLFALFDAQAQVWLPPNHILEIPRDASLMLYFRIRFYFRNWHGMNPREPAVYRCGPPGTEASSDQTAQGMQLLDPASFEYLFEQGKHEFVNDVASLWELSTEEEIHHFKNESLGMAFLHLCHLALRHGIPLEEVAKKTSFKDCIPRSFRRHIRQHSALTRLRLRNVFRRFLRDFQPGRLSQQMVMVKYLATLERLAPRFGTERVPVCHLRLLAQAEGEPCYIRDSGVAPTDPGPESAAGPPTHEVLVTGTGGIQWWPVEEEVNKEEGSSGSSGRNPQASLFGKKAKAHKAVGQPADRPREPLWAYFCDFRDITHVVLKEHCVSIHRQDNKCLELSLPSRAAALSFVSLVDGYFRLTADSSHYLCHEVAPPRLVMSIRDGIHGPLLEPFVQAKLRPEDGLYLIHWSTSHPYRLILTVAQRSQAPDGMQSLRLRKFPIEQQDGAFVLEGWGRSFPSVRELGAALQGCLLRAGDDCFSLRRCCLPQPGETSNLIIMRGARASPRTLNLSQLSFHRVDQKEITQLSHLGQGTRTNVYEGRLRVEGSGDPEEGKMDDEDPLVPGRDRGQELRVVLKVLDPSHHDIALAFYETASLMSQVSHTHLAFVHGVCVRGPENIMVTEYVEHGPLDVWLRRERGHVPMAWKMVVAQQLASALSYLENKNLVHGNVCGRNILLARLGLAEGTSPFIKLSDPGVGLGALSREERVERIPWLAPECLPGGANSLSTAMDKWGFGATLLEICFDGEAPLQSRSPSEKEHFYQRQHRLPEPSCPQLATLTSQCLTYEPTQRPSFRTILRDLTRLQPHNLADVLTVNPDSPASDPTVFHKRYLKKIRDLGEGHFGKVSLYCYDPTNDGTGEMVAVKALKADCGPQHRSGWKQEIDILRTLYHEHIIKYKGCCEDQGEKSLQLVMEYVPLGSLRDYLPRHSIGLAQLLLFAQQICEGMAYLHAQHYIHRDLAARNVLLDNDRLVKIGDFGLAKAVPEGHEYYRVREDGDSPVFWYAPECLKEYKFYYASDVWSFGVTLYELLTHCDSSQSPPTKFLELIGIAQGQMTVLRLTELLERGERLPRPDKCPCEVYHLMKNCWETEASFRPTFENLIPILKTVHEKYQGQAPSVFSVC

In assay [2] the target is T1, TYK2. As to the kind of experiment: TYK2 degradation MSD assay in human PBMC cells. Also noted: endogenous in cells; host or cells: human PBMC. Conditions: 4 to 24 hours incubation, read-out: TYK2 MSD DC50 rating in human PBMC. The essentials: as §1
In assay [3] the target is T1, TYK2. As to the kind of experiment: TYK2 degradation MSD assay in OCI-LY10 cells. On the set-up: endogenous in cells; host or cells: EBV-B cells. The note with it: 4 to 24 hours incubation, read-out: TYK2 MSD DC50 rating in OCI-LY10. The essentials:
as §1

On to `CNc1cc(Nc2cccc(CN3CCC(N4CC(N5CCN(c6ccc7c(c6)n(C)c(=O)n7C6CCC(=O)NC6=O)CC5)C4)CC3)c2)nn2c(C(=O)NC3CC3)cnc12` (stereo not drawn) [Example K589], for which the DC50 in assay [1] is over 100 nM; in assay [2], over 100 nM; in assay [3] it was under 1 nM.

Regarding `CNc1cc(Nc2cccc(CN3CCC(OC4CC(c5cccc6c5n(C)c(=O)n6C5CCC(=O)NC5=O)C4)CC3)c2)nn2c(C(=O)NC3CC3)cnc12` (stereo not drawn) [Example K590], the DC50 in assay [1] is over 100 nM; in assay [2] it was over 100 nM; in assay [3] it was under 1 nM.

Take `CNc1cc(Nc2cccc(CN3CCN(c4ccc5c(c4)n(C)c(=O)n5C4CCC(=O)NC4=O)CC3)c2)nn2c(C(=O)NC3CC3)cnc12` (stereo not drawn) [Example K591]: the DC50 in assay [1], in assay [2] and in assay [3] was over 100 nM throughout.

For `CNc1cc(Nc2cccc(CN3CC4(CCN(c5cccc6c5n(C)c(=O)n6C5CCC(=O)NC5=O)CC4)C3)c2)nn2c(C(=O)NC3CC3)cnc12` (stereo not drawn) [Example K592], the DC50 in assay [1] was over 100 nM; in assay [2] it was over 100 nM; in assay [3], 1 to 10 nM.

For `CNc1cc(Nc2cccc(CN(C)C3CCN(c4ccc5c(c4)n(C)c(=O)n5C4CCC(=O)NC4=O)CC3)c2)nn2c(C(=O)NC3CC3)cnc12` (stereo not drawn) [Example K593], the DC50 in assay [1], in assay [2] and in assay [3] was over 100 nM in each case.

Turning to `CNc1cc(Nc2cccc(CN3CCN(c4cccc5c4n(C)c(=O)n5C4CCC(=O)NC4=O)CC3)c2)nn2c(C(=O)NC3CC3)cnc12` (stereo not drawn) [Example K594], the DC50 in assay [1], in assay [2] and in assay [3] was over 100 nM in each case.

`CNc1cc(Nc2cccc(CN3CCC(OCC#Cc4cccc5c4n(C)c(=O)n5C4CCC(=O)NC4=O)CC3)c2)nn2c(C(=O)NC3CC3)cnc12` (stereo not drawn) [Example K595]: the results for the DC50 in assay [1], in assay [2] and in assay [3] were over 100 nM, over 100 nM and 1 to 10 nM, respectively.

As to `CNc1cc(Nc2cccc(CN3CCC(OC4CC(c5ccc6c(c5)n(C)c(=O)n6C5CCC(=O)NC5=O)C4)CC3)c2)nn2c(C(=O)NC3CC3)cnc12` (stereo not drawn) [Example K596], the DC50 in assay [1] was over 100 nM; in assay [2], over 100 nM; in assay [3], under 1 nM.

With `CNc1cc(Nc2cccc(CN(C)C3CCN(c4cccc5c4n(C)c(=O)n5C4CCC(=O)NC4=O)CC3)c2)nn2c(C(=O)NC3CC3)cnc12` (stereo not drawn) [Example K597], the DC50 in assay [1], in assay [2] and in assay [3] was over 100 nM in each case.

As for `CNC(=O)c1cnc(Nc2ccc(C(=O)NCCCCCCCCc3cc(N4CCCC(C(=O)Nc5ccc(=O)n(CC(=O)OC)c5)C4)ccn3)cn2)cc1Nc1cccc(-c2ncc(F)cn2)c1OC` (stereo not drawn) [Example K598], the DC50 in assay [1], in assay [2] and in assay [3] was over 100 nM in each case.

As to `CNc1cc(Nc2cccn(-c3ccc(C(=O)NCCCCCCCCc4cncc(N5CCC[C@H](C(=O)Nc6ccc(=O)n(CC(=O)OC)c6)C5)c4)cn3)c2=O)nn2c(C(=O)N[C@@H]3C[C@@H]3F)cnc12` [Example K599], the DC50 in assay [1], in assay [2] and in assay [3] was over 100 nM in each case.

With `CNc1cc(Nc2cccc(CN3CCC4(CC3)CCN(c3ccc5c(c3)[nH]c(=O)n5C3CCC(=O)NC3=O)C4)c2)nn2c(C(=O)NC3CC3)cnc12` (stereo not drawn) [Example K601], the DC50 in assay [1], in assay [2] and in assay [3] was over 100 nM throughout.

On to `CNc1cc(Nc2cccc(CN3CCN(Cc4ccc5c(c4)n(C)c(=O)n5C4CCC(=O)NC4=O)CC3)c2)nn2c(C(=O)NC3CC3)cnc12` (stereo not drawn) [Example K602], for which the DC50 in assay [1], in assay [2] and in assay [3] was over 100 nM each time.

Consider `CNc1cc(Nc2cccc(CN3CC(N4CCN(c5ccc6c(c5)n(C)c(=O)n6C5CCC(=O)NC5=O)CC4)C3)c2)nn2c(C(=O)NC3CC3)cnc12` (stereo not drawn) [Example K603], for which the results for the DC50 in assay [1], in assay [2] and in assay [3] were over 100 nM, over 100 nM and 1 to 10 nM, respectively.

Consider `CNc1cc(Nc2cccc(CN3CC4(C3)CN(c3ncc(C#Cc5ccc6c(c5)n(C)c(=O)n6C5CCC(=O)NC5=O)cn3)C4)c2)nn2c(C(=O)NC3CC3)cnc12` (stereo not drawn) [Example K604], for which the DC50 in assay [1] was over 100 nM; in assay [2], over 100 nM; in assay [3], under 1 nM.

In the case of `CNc1cc(Nc2cccc(CN(C)Cc3ccc(-c4ccc5c(c4)n(C)c(=O)n5C4CCC(=O)NC4=O)cn3)c2)nn2c(C(=O)NC3CC3)cnc12` (stereo not drawn) [Example K605], the DC50 in assay [1], in assay [2] and in assay [3] was over 100 nM in each case.

`CNc1cc(Nc2cccc(CN3CCC(CN(C)c4ccc5c(c4)n(C)c(=O)n5C4CCC(=O)NC4=O)CC3)c2)nn2c(C(=O)NC3CC3)cnc12` (stereo not drawn) [Example K606]: the DC50 in assay [1], in assay [2] and in assay [3] was over 100 nM each time.

For the compound `CNc1cc(Nc2cccc(CN3CC(C)(Cc4ccc5c(c4)n(C)c(=O)n5C4CCC(=O)NC4=O)C3)c2)nn2c(C(=O)NC3CC3)cnc12` (stereo not drawn) [Example K607], the DC50 in assay [1], in assay [2] and in assay [3] was over 100 nM throughout.

For `CNc1cc(Nc2cccc(CN3CCCC4(C3)CN(c3ncc(C#Cc5ccc6c(c5)n(C)c(=O)n6C5CCC(=O)NC5=O)cn3)C4)c2)nn2c(C(=O)NC3CC3)cnc12` (stereo not drawn) [Example K608], the results for the DC50 in assay [1], in assay [2] and in assay [3] were over 100 nM, over 100 nM and 1 to 10 nM, respectively.

Take `CNc1cc(N2CCc3c(-c4ccc(CN5CCC6(CC5)CCN(c5ccc(-c7ccc8c(c7)n(C)c(=O)n8C7CCC(=O)NC7=O)cc5)CC6)cn4)cccc32)nn2c(C(=O)N[C@@H]3C[C@@H]3F)cnc12` (stereo partly drawn) [Example K609]: the DC50 in assay [1] is over 100 nM; in assay [2], over 100 nM; in assay [3] it was 1 to 10 nM.

`CNc1cc(Nc2cccc(CN3CC4(C3)CN(c3ccc(-c5ccc6c(c5)n(C)c(=O)n6C5CCC(=O)NC5=O)cc3)C4)c2OC)nn2c(C(=O)N[C@@H]3C[C@@H]3F)cnc12` (stereo partly drawn) [Example K610]: the DC50 in assay [1], in assay [2] and in assay [3] was over 100 nM throughout.

Turning to `CNc1cc(Nc2cccc(-c3ccc(CN4CCN(c5ccc(-c6ccc7c(c6)n(C)c(=O)n7C6CCC(=O)NC6=O)cc5)CC4)cn3)c2C(F)F)nn2c(C(=O)N[C@@H]3C[C@@H]3F)cnc12` (stereo partly drawn) [Example K611], the values for the DC50 in assay [1], in assay [2] and in assay [3] were over 100 nM, over 100 nM and 1 to 10 nM, respectively.

`CNc1cc(Nc2cccc(CN3CCN(CCc4ccc5c(c4)n(C)c(=O)n5C4CCC(=O)NC4=O)CC3)c2)nn2c(C(=O)NC3CC3)cnc12` (stereo not drawn) [Example K612]: the figures for the DC50 in assay [1], in assay [2] and in assay [3] were over 100 nM, over 100 nM and 10 to 100 nM, respectively.

On to `CNc1cc(Nc2cccc(CN3CCN(CCc4ccc5c(c4)n(C)c(=O)n5C4CCC(=O)NC4=O)CC3)c2)nn2c(C(=O)NC3CC3)cnc12` (stereo not drawn) [Example K613], for which the results for the DC50 in assay [1], in assay [2] and in assay [3] were over 100 nM, over 100 nM and 1 to 10 nM, respectively.

For the compound `CNc1cc(Nc2cccc(CN3CC4(CCN(c5ccc6c(c5)n(C)c(=O)n6C5CCC(=O)NC5=O)CC4)C3)c2)nn2c(C(=O)NC3CC3)cnc12` (stereo not drawn) [Example K614], the DC50 in assay [1], in assay [2] and in assay [3] was over 100 nM each time.

For `CNc1cc(Nc2cccc(-c3ccc(CN4CCN(c5ccc(-c6ccc7c(c6)n(C)c(=O)n7C6CCC(=O)NC6=O)cc5)CC4)cn3)c2OC)nn2ccnc12` (stereo not drawn) [Example K615], the DC50 in assay [1], in assay [2] and in assay [3] was over 100 nM in each case.

With `CNc1cc(N2CCc3c(-c4ccc(C(=O)N5CCN([C@H]6CC[C@H](c7ccc(-c8ccc9c(c8)n(C)c(=O)n9C8CCC(=O)NC8=O)cc7)CC6)CC5)cn4)cccc32)nn2c(C(=O)N[C@@H]3C[C@@H]3F)cnc12` (stereo partly drawn) [Example K616], the DC50 was over 100 nM in assay [1], over 100 nM in assay [2] and 1 to 10 nM in assay [3].

For `CNc1cc(Nc2cccc(-c3ccc(C(=O)N4CCN(C5CCC(c6ccc(-c7ccc8c(c7)n(C)c(=O)n8C7CCC(=O)NC7=O)cc6)CC5)CC4)cn3)c2OC)nn2c(C(=O)N[C@@H]3C[C@@H]3F)cnc12` (stereo partly drawn) [Example K617], the DC50 in assay [1] is over 100 nM; in assay [2], over 100 nM; in assay [3], under 1 nM.

With `CNc1cc(Nc2cccn(-c3ccc(C(=O)NCCOCCOCCOCCOCCNc4cncc(N5CCCC(C(=O)Nc6ccc(=O)n(CC(=O)OC)c6)C5)c4)cn3)c2=O)nn2c(C(=O)N[C@@H]3C[C@@H]3F)cnc12` (stereo partly drawn) [Example K618], the DC50 in assay [1], in assay [2] and in assay [3] was over 100 nM throughout.

As to `CNc1cc(Nc2cccc(N3CCC(CN4CCN(c5ccc(-c6ccc7c(c6)n(C)c(=O)n7C6CCC(=O)NC6=O)cc5)CC4)CC3)c2OC)nn2c(C(=O)N[C@@H]3C[C@@H]3F)cnc12` (stereo partly drawn) [Example K619], the DC50 in assay [1] was over 100 nM; in assay [2], over 100 nM; in assay [3], 1 to 10 nM.

Consider `CNc1cc(N2CCN(c3ccc(CN4CCN(c5ccc(-c6ccc7c(c6)n(C)c(=O)n7C6CCC(=O)NC6=O)cc5)CC4)cc3)CC2)nn2c(C(=O)N[C@@H]3C[C@@H]3F)cnc12` (stereo partly drawn) [Example K620], for which the DC50 in assay [1], in assay [2] and in assay [3] was over 100 nM in each case.

Consider `CNc1cc(Nc2cccc(C3CCC(CN4CCN(c5ccc(-c6ccc7c(c6)n(C)c(=O)n7C6CCC(=O)NC6=O)cc5)CC4)CC3)c2OC)nn2c(C(=O)N[C@@H]3C[C@@H]3F)cnc12` (stereo partly drawn) [Example K621], for which the DC50 in assay [1] is over 100 nM; in assay [2], over 100 nM; in assay [3], 1 to 10 nM.

For orientation: DC50 means the concentration at which degradation of the target reaches its halfway point.
